Drawing on ChEMBL document CHEMBL1145358, “2-Phenyl-2,3-dihydro-1H-imidazo[1,2-b]pyrazole derivatives: new potent inhibitors of fMLP-induced neutrophil chemotaxis” (Bioorg Med Chem Lett, 2007), this text covers IC50 and Ki for 12 molecules.

SMILES strings stand for the structures.

Assay [1] is described as follows: Inhibition of fMLP-OMe-induced chemotaxis in human neutrophils. It is filed as functional.
Assay [2] has as its target T1, fMet-Leu-Phe receptor (Homo sapiens, UniProt P21462).
T1 sequence (P21462 whole entry): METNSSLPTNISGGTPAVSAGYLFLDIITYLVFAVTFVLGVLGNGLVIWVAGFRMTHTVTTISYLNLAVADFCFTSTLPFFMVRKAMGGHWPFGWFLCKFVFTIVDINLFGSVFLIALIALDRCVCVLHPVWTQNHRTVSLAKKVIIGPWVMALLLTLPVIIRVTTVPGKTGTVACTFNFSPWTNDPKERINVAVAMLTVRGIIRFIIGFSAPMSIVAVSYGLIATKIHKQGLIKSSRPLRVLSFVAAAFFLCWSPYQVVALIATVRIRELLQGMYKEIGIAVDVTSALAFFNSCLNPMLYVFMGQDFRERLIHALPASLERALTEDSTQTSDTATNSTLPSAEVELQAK
Description: Displacement of [3H]-fMLP from FPR in human neutrophils. Background: Loss of bound radioactivity is the signal in a displacement assay; it reports binding, not function.

The term IC50 denotes the concentration that inhibits the measured activity by half. Broadly, the Ki is a measure of affinity in units of concentration, obtained from inhibition or displacement. `O=C(NC1CC1)c1cnn2c1NC(c1ccccc1)C2` (centres undefined) registered an IC50 in assay [1] of 0.48 nM. Also, the Ki in assay [2] is more than 10000 nM.

`O=C(c1cnn2c1NC(c1ccccc1)C2)N1CCN(Cc2ccccc2)CC1` (centres undefined) yielded an IC50 in assay [1] of 27 nM. The molecule further registered a Ki in assay [2] of more than 10000 nM.

`O=C(c1cnn2c1NC(c1ccccc1)C2)N1CCCCCC1` (centres undefined) showed an IC50 in assay [1] of 1.01 nM. The Ki in assay [2] was more than 10000 nM.

On to `c1ccc(C2Cn3nccc3N2)cc1` (centres undefined), for which, in assay [1], the IC50 amounted to 29 nM. The molecule further showed a Ki in assay [2] of more than 10000 nM.

Take `O=C(O)c1cnn2c1NC(c1ccccc1)C2` (centres undefined): the IC50 in assay [1] came to 1.16 nM. The Ki in assay [2] was more than 10000 nM.

In assay [1], `CC(C)(C)NC(=O)c1cnn2c1NC(c1ccccc1)C2` (centres undefined) displayed an IC50 of 7.52 nM. This molecule yielded a Ki in assay [2] of more than 10000 nM.

`NC(=O)c1cnn2c1NC(c1ccccc1)C2` (centres undefined) yielded an IC50 in assay [1] of 3.67 nM. The same molecule yielded a Ki in assay [2] of more than 10000 nM.

In assay [1], `O=C(c1cnn2c1NC(c1ccccc1)C2)N1CCOCC1` (centres undefined) had an IC50 of 300 nM. The molecule also displayed a Ki in assay [2] of more than 10000 nM.

Consider `O=C(c1cnn2c1NC(c1ccccc1)C2)N1CCCCC1` (centres undefined), for which, in assay [1], the half-maximal inhibitory concentration (IC50) stood at 1.48 nM. The molecule further came in with a Ki in assay [2] of more than 10000 nM.

With `O=C(NCc1ccccc1)c1cnn2c1NC(c1ccccc1)C2` (centres undefined), half-maximal inhibition in assay [1] (IC50) required 10000 nM. In addition, the Ki in assay [2] was more than 10000 nM.

With `O=C(c1cnn2c1NC(c1ccccc1)C2)N1CCCC1` (centres undefined), the IC50 in assay [1] came out at 9000 nM. Moreover, in assay [2], the inhibition constant Ki is more than 10000 nM.

In assay [1], `CCOC(=O)c1cnn2c1NC(c1ccccc1)C2` (centres undefined) had an IC50 of 2400 nM. The same molecule had a Ki in assay [2] of more than 10000 nM.
